Laboratory results taken from patent publication US20070173438A1, “[PSI[CH2NH]PG4] glycopeptide antibiotic analogs” (The Scripps Research Institute, priority 2006, published 2007).
Values after ≈ are worked out from the molar mass of the structure shown. Values joined by “and” are separate entries in the source; they are usually repeats but may differ in a detail not shown here. Identical values can stand only once.

Experiments:
[1] = test system: VanA Enterococcus faecalis (BM4166); assay: antimicrobial assay against VanA resistant organism; type: cell-based; settings: for potency weaker than vancomycin and its aglycon against sensitive E. faecalis: MIC against VanA BM4166 compared with vancomycin/aglycon MIC against sensitive E. faecalis
Description: (§1) It is the most difficult of the resistant organisms to treat (vs VanB) and characteristic of such organisms, they grow unchallenged enlisting a D-Ala-D-Ala peptidoglycan cell wall precursor, but switch to D-Ala-D-Lac upon glycopeptide treatment.

[2] = test system: N,N′-Ac2-Lys-D-Ala-D-Ala (2); assay: UV difference titration binding constant with model ligand N,N′-Ac2-Lys-D-Ala-D-Ala; settings: for Ka, affinity for D-Ala-D-Ala (Ac2-L-Lys-D-Ala-D-Ala, 2): association constant, 0.02 M sodium citrate buffer, Scatchard plot
Procedure: (§2) Binding Constant Determination. The binding constants for compounds 5 and 41 for association with the model ligands N,N′-Ac2-Lys-D-Ala-D-Ala and N,N′-Ac2-Lys-D-Ala-D-Lac were determined according to literature (Nieto, M.; Perkins, H. R. Biochem. J. 1971, 124, 845; Nieto, M.; Perkins, H. R. Biochem. J. 1971, 124, 773; Nieto, M.; Perkins, H. R. Biochem. J. 1971, 124, 789) protocols. UV difference experiments were carried out on a CARY 3E UV-Vis spectrometer. UV scans were run with a baseline correction that consisted of 0.02 M sodium citrate buffer and covered a range from 200 to 345 nm. A solution of 5 or 41 (1.1×10^−4 M in 0.02 M sodium citrate buffer) was placed into a quartz UV cuvette (1.0 cm path length) and the UV spectrum recorded versus a reference cell containing 0.02 M sodium citrate buffer. UV spectra were recorded after each addition of a solution of N,N′-Ac2-Lys-D-Ala-D-Ala or N,N′-Ac2-Lys-D-Ala-D-Lac in 0.02 M sodium citrate buffer to each cell from 0.1 to 140.0 equivalents. The absorbance value at the λmax was recorded and the running change in absorbance, ΔAx equiv (Ainitial−Ax equiv, ) measured. The number of ligand equivalents was plotted versus ΔA to afford the ligand binding titration curve. The break point of this curve is the saturation point of the system and its xy coordinates determined by establishing the intersection of the linear fits of the pre and postsaturation curves. ΔAsaturation was calculated and employed to determine the concentration of free ligand in solution at each titration. ΔA was plotted versus ΔA/free ligand concentration to give a Scatchard plot from which the binding constants were determined.

[3] = test system: N,N′-Ac2-Lys-D-Ala-D-Lac (4); assay: UV difference titration binding constant with model ligand N,N′-Ac2-Lys-D-Ala-D-Lac; settings: for Ka, affinity for D-Ala-D-Lac (Ac2-L-Lys-D-Ala-D-Lac, 4): association constant, 0.02 M sodium citrate buffer, Scatchard plot
Procedure: as §2

sensitive E. faecalis = assay: antimicrobial activity against sensitive E. faecalis; type: cell-based; settings: Enterococcus faecalis
Description: as §1

[4] = test system: enterococci resistant to vancomycin, VanA and VanB; settings: literature; cited from earlier work
[5] = test system: N,N′-Ac2-Lys-D-Ala-D-Lac (4); settings: cited from earlier work
[6] = test system: 3 (methylene analogue of Ac2-L-Lys-D-Ala-D-Ala); settings: cited from earlier work

Row | MIC ([1]; VanA E. faecalis BM4166) | Ka, affinity for D-Ala-D-Ala (Ac2-L-Lys-D-Ala-D-Ala, 2) [2] | Ka, affinity for D-Ala-D-Lac (Ac2-L-Lys-D-Ala-D-Lac, 4) [3] | increase in binding affinity for D-Ala-D-Ala, 5 versus 41 ([2]; 5 versus carbamate 41) | reduction in affinity for D-Ala-D-Ala relative to the vancomycin aglycon ([2]; relative to vancomycin aglycon) | increase in binding affinity for D-Ala-D-Lac, 5 versus 41 ([3]; 5 versus carbamate 41) | increase in affinity for D-Ala-D-Lac relative to the vancomycin aglycon ([3]; relative to vancomycin aglycon) | SMILES | potency weaker than vancomycin and its aglycon against sensitive E. faecalis [1] | potency relative to vancomycin or its aglycon (more potent) ([1]; VanA E. faecalis BM4166) | MIC ([1]; Enterococcus faecalis) | MIC (sensitive E. faecalis) | drop in antimicrobial activity with D-Ala-D-Lac resistant bacteria [4] | reduction of binding to D-Ala-D-Lac ligand versus D-Ala-D-Ala ([5]; literature) | destabilizing lone pair/lone pair interaction with ester oxygen of 4 ([5]; share of lost binding energy) | reduced binding affinity of 4 ([5]; versus 2, total loss) | affinity for 3 less than that of 2 ([6]; relative to Ac2-L-Lys-D-Ala-D-Ala (2)) | affinity for 3 greater than that of 4 ([6]; relative to Ac2-L-Lys-D-Ala-D-Lac (4))
1 | 31 µg/mL (≈ 27.4 µM) | 4800 M⁻¹ | 5200 M⁻¹ | 3 fold | 37 fold and 35 fold | 1.2 fold | 43 fold and 40 fold | CN[C@H](CC(C)C)C(=O)N[C@H]1C(=O)N[C@@H](CC(N)=O)C(=O)N[C@H]2CN[C@H]3C(=O)N[C@H](C(=O)N[C@H](C(=O)O)c4cc(O)cc(O)c4-c4cc3ccc4O)[C@H](O)c3ccc(c(Cl)c3)Oc3cc2cc(c3O)Oc2ccc(cc2Cl)[C@H]1O [Compound 5, [ψ[CH2NH]Tpg^4]vancomycin aglycon] | roughly 30 fold | roughly 40 fold |  |  |  |  |  |  |  | 
2 |  |  |  |  |  |  |  | CN[C@H](CC(C)C)C(=O)N[C@H]1C(=O)N[C@@H](CC(N)=O)C(=O)N[C@H]2C(=O)N[C@H]3C(=O)N[C@H](C(=O)N[C@H](C(=O)O)c4cc(O)cc(O)c4-c4cc3ccc4O)[C@H](O)c3ccc(c(Cl)c3)Oc3cc2cc(c3O[C@@H]2O[C@H](CO)[C@@H](O)[C@H](O)[C@H]2O[C@H]2C[C@](C)(N)[C@H](O)[C@H](C)O2)Oc2ccc(cc2Cl)[C@H]1O [vancomycin] |  |  | 2000 µg/mL (≈ 1380 µM) | 1 to 2.5 µg/mL (≈ 0.69 to 1.73 µM) | 1000 fold | 1000 fold | 2.6 kcal/mol | 4.1 kcal/mol | approximately 10 fold | 100 fold
3 | 31 µg/mL (≈ 23.8 µM) | 1600 M⁻¹ | 4100 M⁻¹ |  |  |  |  | CN[C@H](CC(C)C)C(=O)N[C@H]1C(=O)N[C@@H](CC#N)C(=O)N[C@H]2CN(C(=O)OC)[C@H]3C(=O)N[C@H](C(=O)N[C@H](COCOCCOC)c4cc(OC)cc(OC)c4-c4cc3ccc4OC)[C@H](O)c3ccc(c(Cl)c3)Oc3cc2cc(c3OC)Oc2ccc(cc2Cl)[C@H]1O [Compound 41] | roughly 30 fold | roughly 40 fold |  |  |  |  |  |  |  | 

Row | SMILES | MIC ([1]; VanA E. faecalis BM4166) | Ka, affinity for D-Ala-D-Ala (Ac2-L-Lys-D-Ala-D-Ala, 2) [2] | Ka, affinity for D-Ala-D-Lac (Ac2-L-Lys-D-Ala-D-Lac, 4) [3] | increase in binding affinity for D-Ala-D-Ala, 5 versus 41 ([2]; 5 versus carbamate 41) | reduction in affinity for D-Ala-D-Ala relative to the vancomycin aglycon ([2]; relative to vancomycin aglycon) | increase in binding affinity for D-Ala-D-Lac, 5 versus 41 ([3]; 5 versus carbamate 41) | increase in affinity for D-Ala-D-Lac relative to the vancomycin aglycon ([3]; relative to vancomycin aglycon) | potency weaker than vancomycin and its aglycon against sensitive E. faecalis [1] | potency relative to vancomycin or its aglycon (more potent) ([1]; VanA E. faecalis BM4166) | MIC ([1]; Enterococcus faecalis) | MIC (sensitive E. faecalis) | drop in antimicrobial activity with D-Ala-D-Lac resistant bacteria [4] | reduction of binding to D-Ala-D-Lac ligand versus D-Ala-D-Ala ([5]; literature) | destabilizing lone pair/lone pair interaction with ester oxygen of 4 ([5]; share of lost binding energy) | reduced binding affinity of 4 ([5]; versus 2, total loss) | affinity for 3 less than that of 2 ([6]; relative to Ac2-L-Lys-D-Ala-D-Ala (2)) | affinity for 3 greater than that of 4 ([6]; relative to Ac2-L-Lys-D-Ala-D-Lac (4))
4 | CN[C@H](CC(C)C)C(=O)N[C@H]1C(=O)N[C@@H](CC(N)=O)C(=O)N[C@H]2C(=O)N[C@H]3C(=O)N[C@H](C(=O)N[C@H](C(=O)O)c4cc(O)cc(O)c4-c4cc3ccc4O)[C@H](O)c3ccc(c(Cl)c3)Oc3cc2cc(c3O)Oc2ccc(cc2Cl)[C@H]1O [vancomycin aglycon, reference compound] | 640 µg/mL (≈ 559 µM) | 170000 M⁻¹ | 120 M⁻¹ |  |  |  |  |  |  |  |  |  |  |  |  |  | 
